Measured values from patent US9078900B2 (priority 2008, dated 2015).

Conditions: at the end of the third month after implantation

Cc1nc2n(c(=O)c1CCN1CCC(c3noc4cc(F)ccc34)CC1)CCCC2 [Risperidone, risperidone]
presence of risperidone in the dog plasma: still present at a high level
